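1) Cells in 96-well plates. 2) Compound, 48 h, 5 concentrations. 3) Linear interpolation between surrounding doses. 4) Unreached endpoint = highest concentration. Abbreviation: GI50, concentration required for 50% inhibition of growth. TGI denotes the concentration required for complete inhibition of growth.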
Assays:
Test in all cases: growth of human tumour cells (NCI), 48 h
[1] = tested on: SF-268 CNS
[2] = tested on: SN12C renal
[3] = tested on: DU-145 prostate
[4] = tested on: MOLT-4 leukemia
[5] = tested on: HS 578T breast
[6] = tested on: HOP-62 NSCLC
[7] = tested on: OVCAR-3 ovarian
[8] = tested on: COLO 205 colon
[9] = tested on: SNB-75 CNS
[10] = tested on: RPMI-8226 leukemia
[11] = tested on: T-47D breast
[12] = tested on: SK-MEL-28 melanoma
[13] = tested on: NCI-H522 lung
[14] = tested on: IGROV1 ovarian
[15] = tested on: MALME-3M melanoma
[16] = tested on: K-562 leukemia
[17] = tested on: 786-0 renal
[18] = tested on: A498 renal
[19] = tested on: KM12 colon
[20] = tested on: ACHN renal
[21] = tested on: BT-549 breast
[22] = tested on: OVCAR-8 ovarian
[23] = tested on: HT29 colon
[24] = tested on: MCF7 breast
[25] = tested on: HCC-2998 colon
[26] = tested on: NCI-H460 lung
[27] = tested on: CAKI-1 renal
[28] = tested on: UACC-257 melanoma
[29] = tested on: NCI-H23 lung
[30] = tested on: U251 CNS
[31] = tested on: SK-MEL-2 melanoma
[32] = tested on: SNB-19 CNS
[33] = tested on: OVCAR-4 ovarian
[34] = tested on: RXF 393 renal
[35] = tested on: SK-MEL-5 melanoma
[36] = tested on: MDA-MB-231 breast
[37] = tested on: CCRF-CEM leukemia
[38] = tested on: PC-3 prostate
[39] = tested on: M14 melanoma
[40] = tested on: SK-OV-3 ovarian
[41] = tested on: SW-620 colon
[42] = tested on: MDA-MB-435
[43] = tested on: EKVX NSCLC
[44] = tested on: LOX IMVI melanoma
[45] = tested on: A549 NSCLC
[46] = tested on: HCT-116 colon
[47] = tested on: OVCAR-5 ovarian
[48] = tested on: NCI/ADR-RES ovarian
[49] = tested on: SF-295 CNS
[50] = tested on: SF-539 CNS
[51] = tested on: TK-10 renal
[52] = tested on: SR leukemia
[53] = tested on: NCI-H226 lung
[54] = tested on: UACC-62 melanoma
[55] = tested on: UO-31 renal
[56] = tested on: HCT-15 colon
[57] = tested on: HL-60(TB) leukemia

## CS(=O)(=O)CCN(CC#N)Cc1ccc(-c2ccc3ncnc(Nc4ccc(OCc5cccc(F)c5)c(Cl)c4)c3c2)o1
[1]
  GI50: 16 µM
  TGI: > 25 µM
[2]
  GI50: 12.7 µM
  TGI: > 25 µM
[3]
  GI50: 10.5 µM
  TGI: > 25 µM
[4]
  GI50: 8.81 µM
  TGI: > 25 µM
[5]
  GI50: 6.13 µM
  TGI: > 20.4 µM
[6]
  GI50: > 25 µM
  TGI: > 25 µM
[7]
  GI50: 10.6 µM
  TGI: > 25 µM
[8]
  GI50: > 19.1 µM
  TGI: > 25 µM
[9]
  GI50: > 17.1 µM
  TGI: > 25 µM
[10]
  GI50: 11.7 µM
  TGI: > 25 µM
[11]
  GI50: 5.48 µM
  TGI: > 23.7 µM
[12]
  GI50: > 25 µM
  TGI: > 25 µM
[13]
  GI50: 4.3 µM
  TGI: > 18.5 µM
[14]
  GI50: 6.25 µM
  TGI: > 25 µM
[15]
  GI50: 14.9 µM
  TGI: > 25 µM
[16]
  GI50: 9.98 µM
  TGI: > 25 µM
[17]
  GI50: 14.9 µM
  TGI: > 25 µM
[18]
  GI50: 4.29 µM
  TGI: > 23.7 µM
[19]
  GI50: 9.34 µM
  TGI: > 25 µM
[20]
  GI50: 1.73 µM
  TGI: > 25 µM
[21]
  GI50: 15.6 µM
  TGI: > 25 µM
[22]
  GI50: 9.75 µM
  TGI: > 25 µM
[23]
  GI50: 10.3 µM
  TGI: > 25 µM
[24]
  GI50: 8.66 µM
  TGI: > 25 µM
[25]
  GI50: 15.1 µM
  TGI: > 25 µM
[26]
  GI50: 10.9 µM
  TGI: > 25 µM
[27]
  GI50: 0.896 µM
  TGI: > 25 µM
[28]
  GI50: > 25 µM
  TGI: > 25 µM
[29]
  GI50: 13.2 µM
  TGI: > 25 µM
[30]
  GI50: 15.2 µM
  TGI: > 25 µM
[31]
  GI50: 17.3 µM
  TGI: > 25 µM
[32]
  GI50: > 25 µM
  TGI: > 25 µM
[33]
  GI50: 11.4 µM
  TGI: > 25 µM
[34]
  GI50: 10.8 µM
  TGI: > 23.5 µM
[35]
  GI50: 4.91 µM
  TGI: > 25 µM
[36]
  GI50: 8.35 µM
  TGI: > 25 µM
[37]
  GI50: 9.45 µM
  TGI: > 25 µM
[38]
  GI50: 10.9 µM
  TGI: > 25 µM
[39]
  GI50: 11.7 µM
  TGI: > 25 µM
[40]
  GI50: 0.107 µM
  TGI: > 25 µM
[41]
  GI50: 11.7 µM
  TGI: > 25 µM
[42]
  GI50: 11 µM
  TGI: > 25 µM
[43]
  GI50: 0.313 µM
  TGI: > 25 µM
[44]
  GI50: 6.52 µM
  TGI: 19.8 µM
[45]
  GI50: 14.6 µM
  TGI: > 25 µM
[46]
  GI50: 11 µM
  TGI: > 25 µM
[47]
  GI50: 7.89 µM
  TGI: > 25 µM
[48]
  GI50: 8.17 µM
  TGI: > 25 µM
[49]
  GI50: 24.7 µM
  TGI: > 25 µM
[50]
  GI50: > 25 µM
  TGI: > 25 µM
[51]
  GI50: 1.19 µM
  TGI: > 25 µM
[52]
  GI50: 8.93 µM
  TGI: > 25 µM
[53]
  GI50: > 25 µM
  TGI: > 25 µM
[54]
  GI50: > 22.3 µM
  TGI: > 25 µM
[55]
  GI50: 5.56 µM
  TGI: > 25 µM
[56]
  GI50: 10.2 µM
  TGI: > 25 µM
[57]
  GI50: 11.2 µM
  TGI: > 25 µM

Source: PubChem BioAssay (NCI)
